What is called AUC(0-t) is exposure summed from dosing to a finite time, without extrapolation to infinity. Low values mean less exposure, high ones more exposure. The term Tmax denotes the time from dosing to the highest level. In general, half-life refers to the time needed for the level to fall by half in the phase considered. A high value points to slow decline.

Consider one compound from article PMC10269878 (Microbiology Spectrum, 2023).

Data set [1] is described as follows: in vivo. Conditions: mouse, po, 100 mg/kg.
The test system of data set [2] is melioidosis. Conditions: in vivo; cited from earlier work.
The conditions of data set [3]: mouse, in vivo.

In the case of `C[C@H]1c2cccc(O)c2C(=O)C2=C(O)[C@]3(O)C(=O)C(C(N)=O)=C(O)[C@@H](N(C)C)[C@@H]3[C@@H](O)[C@@H]21` [Doxycycline, doxycycline monohydrate], in data set [1], the AUC(0-t) was 12700 ng·h/mL, the Tmax was found to be 1.24 h, the half-life was 2.56 h and the k el is 7.5e-05 s⁻¹. For the same compound, the “Efficacy alone to clear melioidosis” value in data set [2] is “ineffective alone to clear melioidosis”. Further, in data set [3], the “Doxycycline Absorption (ka)” value was 1.68 h⁻¹.
